According to EP0908457B1, “3-(1,2-benzisothiazol- and isoxazol-5-Y1)-2,4(1H,3H)-pyrimidinedione or thione and 3-(1,2-benzisothiazol- and isoxazol-5-y1)-4(3H)-pyrimidinone or thione herbicidal agents” (BASF AKTIENGESELLSCHAFT, priority 1997, dated 1999):

Columns and labels:
[1] = system: Cyperus serotinus, Rottb.; assay: Preemergence weed control under flooded paddy conditions, CYPSE (Flatsedge); assay type: in vivo; details: for CYPSE herbicidal rating / herbicidal effect rating, CYPSE: preemergence, rated three to four weeks after treatment; for CYPSE: preemergence weeds, herbicidal effect rating 0-9, three to four weeks after treatment; as to herbicidal effect rating, CYPSE: meaning of each grade not given here
Sagittaria pygmaea, L. = assay: Preemergence weed control under flooded paddy conditions, SAGPY (Arrowhead (Pygmaea)); assay type: in vivo; details: flooded paddy; for SAGPY herbicidal rating / herbicidal effect rating, SAGPY: preemergence, rated three to four weeks after treatment; for SAGPY: preemergence weeds, herbicidal effect rating 0-9, three to four weeks after treatment; as to herbicidal effect rating, SAGPY: meaning of each grade not given here
[2] = system: Echinochloa oryzoides (Ard.) Fritsch.; assay: Preemergence weed control under flooded paddy conditions, ECHORC (Watergrass (Calif.)); assay type: in vivo; details: flooded paddy; for ECHORC herbicidal rating / herbicidal effect rating, ECHORC: preemergence, rated three to four weeks after treatment; for ECHORC: preemergence weeds, herbicidal effect rating 0-9, three to four weeks after treatment; as to herbicidal effect rating, ECHORC: meaning of each grade not given here
[3] = system: Monochoria vaginalis, Presl.; assay: Preemergence weed control under flooded paddy conditions, MOOVA (Monochoria); assay type: in vivo; details: flooded paddy; for MOOVA herbicidal rating / herbicidal effect rating, MOOVA: preemergence, rated three to four weeks after treatment; for MOOVA: preemergence weeds, herbicidal effect rating 0-9, three to four weeks after treatment; as to herbicidal effect rating, MOOVA: meaning of each grade not given here
Cyperus iria = assay: Preemergence weed control under flooded paddy conditions, CYPIR (Rice Flatsedge); assay type: in vivo; details: flooded paddy; for CYPIR herbicidal rating / herbicidal effect rating, CYPIR: preemergence, rated three to four weeks after treatment; for CYPIR: preemergence weeds, herbicidal effect rating 0-9, three to four weeks after treatment; as to herbicidal effect rating, CYPIR: meaning of each grade not given here
[4] = system: Oryza sativa, (L.) Tebonnet; assay: Rice tolerance to post-transplant applications under flooded paddy conditions (Example 187), ORYSAT (Rice, Tebonnet); details: for ORYSAT herbicidal rating (rice tolerance) / herbicidal effect rating, ORYSAT (rice tolerance): rated three to four weeks after treatment; for ORYSAT: herbicidal effect rating 0-9, three to four weeks after treatment

## Cn1c(C(F)(F)F)cc(=O)n(-c2ccc3snc(C(C)(C)C(=O)O)c3c2)c1=O [Example 466, 1,2-Benzisothiazole-3-acetic acid, 5-[3,6-dihydro-3-methyl-2,6-dioxo-4-(trifluoromethyl)-1(2H)-pyrimidinyl]-alpha,alpha-dimethyl-]
[1]; 0.2500 kg/ha
  CYPSE herbicidal rating: 1.0
Sagittaria pygmaea, L.; 0.0320 kg/ha
  SAGPY herbicidal rating: 0.0
Sagittaria pygmaea, L.; 0.0620 kg/ha
  SAGPY herbicidal rating: 0.0
Sagittaria pygmaea, L.; 0.1250 kg/ha
  SAGPY herbicidal rating: 3.0
Sagittaria pygmaea, L.; 0.2500 kg/ha
  SAGPY herbicidal rating: 7.0
[2]; 0.0320 kg/ha
  ECHORC herbicidal rating: 2.0
[2]; 0.0620 kg/ha
  ECHORC herbicidal rating: 4.0
[2]; 0.1250 kg/ha
  ECHORC herbicidal rating: 5.0
[2]; 0.2500 kg/ha
  ECHORC herbicidal rating: 7.0
[3]; 0.0320 kg/ha
  MOOVA herbicidal rating: 7.0
[3]; 0.0620 kg/ha
  MOOVA herbicidal rating: 7.0
[3]; 0.1250 kg/ha
  MOOVA herbicidal rating: 9.0
[3]; 0.2500 kg/ha
  MOOVA herbicidal rating: 9.0
Cyperus iria; 0.0320 kg/ha
  CYPIR herbicidal rating: 3.0
Cyperus iria; 0.0620 kg/ha
  CYPIR herbicidal rating: 3.0
Cyperus iria; 0.1250 kg/ha
  CYPIR herbicidal rating: 7.0
Cyperus iria; 0.2500 kg/ha
  CYPIR herbicidal rating: 9.0
[4]; 0.0320 kg/ha
  ORYSAT herbicidal rating (rice tolerance): 4.0
[4]; 0.0620 kg/ha
  ORYSAT herbicidal rating (rice tolerance): 5.0
[4]; 0.1250 kg/ha
  ORYSAT herbicidal rating (rice tolerance): 7.0
[4]; 0.2500 kg/ha
  ORYSAT herbicidal rating (rice tolerance): 9.0

## COC(=O)COc1c(C)cc(C)cc1-c1nsc2ccc(-n3c(=O)cc(C(F)(F)F)n(C)c3=O)cc12 [Example 26, Methyl {{6-{5-[3,6-dihydro-3-methyl-2,6-dioxo-4-(trifluoromethyl)-1(2H)-pyrimidinyl]-1,2-benzisothiazol-3-yl}-2,4-xylyl}oxy}acetate]
[1]; 0.0313 kg/ha
  herbicidal effect rating, CYPSE: 0.0
[1]; 0.0625 kg/ha
  herbicidal effect rating, CYPSE: 4.0
[1]; 0.1250 kg/ha
  herbicidal effect rating, CYPSE: 2.0
[1]; 0.2500 kg/ha
  herbicidal effect rating, CYPSE: 9.0
Sagittaria pygmaea, L.; 0.0313 kg/ha
  herbicidal effect rating, SAGPY: 0.0
Sagittaria pygmaea, L.; 0.0625 kg/ha
  herbicidal effect rating, SAGPY: 0.0
Sagittaria pygmaea, L.; 0.1250 kg/ha
  herbicidal effect rating, SAGPY: 2.0
Sagittaria pygmaea, L.; 0.2500 kg/ha
  herbicidal effect rating, SAGPY: 9.0
[2]; 0.0313 kg/ha
  herbicidal effect rating, ECHORC: 7.0
[2]; 0.0625 kg/ha
  herbicidal effect rating, ECHORC: 9.0
[2]; 0.1250 kg/ha
  herbicidal effect rating, ECHORC: 9.0
[2]; 0.2500 kg/ha
  herbicidal effect rating, ECHORC: 9.0
[3]; 0.0313 kg/ha
  herbicidal effect rating, MOOVA: 9.0
[3]; 0.0625 kg/ha
  herbicidal effect rating, MOOVA: 9.0
[3]; 0.1250 kg/ha
  herbicidal effect rating, MOOVA: 9.0
[3]; 0.2500 kg/ha
  herbicidal effect rating, MOOVA: 9.0
Cyperus iria; 0.0313 kg/ha
  herbicidal effect rating, CYPIR: 6.0
Cyperus iria; 0.0625 kg/ha
  herbicidal effect rating, CYPIR: 8.0
Cyperus iria; 0.1250 kg/ha
  herbicidal effect rating, CYPIR: 9.0
Cyperus iria; 0.2500 kg/ha
  herbicidal effect rating, CYPIR: 9.0
[4]; 0.0313 kg/ha
  herbicidal effect rating, ORYSAT (rice tolerance): 3.0
[4]; 0.0625 kg/ha
  herbicidal effect rating, ORYSAT (rice tolerance): 4.0
[4]; 0.1250 kg/ha
  herbicidal effect rating, ORYSAT (rice tolerance): 6.0
[4]; 0.2500 kg/ha
  herbicidal effect rating, ORYSAT (rice tolerance): 9.0

## C=CCOC(=O)C(C)(C)c1nsc2ccc(-n3c(=O)cc(C(F)(F)F)n(C)c3=O)cc12 [Example 491, 1,2-Benzisothiazole-3-acetic acid, 5-[3,6-dihydro-3-methyl-2,6-dioxo-4-(trifluoromethyl)-1(2H)-pyrimidinyl]-alpha,alpha-dimethyl-, allyl ester]
[1]; 0.0320 kg/ha
  CYPSE herbicidal rating: 7.0
[1]; 0.0620 kg/ha
  CYPSE herbicidal rating: 9.0
[1]; 0.1250 kg/ha
  CYPSE herbicidal rating: 9.0
[1]; 0.2500 kg/ha
  CYPSE herbicidal rating: 9.0
Sagittaria pygmaea, L.; 0.0320 kg/ha
  SAGPY herbicidal rating: 5.0
Sagittaria pygmaea, L.; 0.0620 kg/ha
  SAGPY herbicidal rating: 5.5
Sagittaria pygmaea, L.; 0.1250 kg/ha
  SAGPY herbicidal rating: 9.0
Sagittaria pygmaea, L.; 0.2500 kg/ha
  SAGPY herbicidal rating: 9.0
[2]; 0.0320 kg/ha
  ECHORC herbicidal rating: 9.0
[2]; 0.0620 kg/ha
  ECHORC herbicidal rating: 9.0
[2]; 0.1250 kg/ha
  ECHORC herbicidal rating: 9.0
[2]; 0.2500 kg/ha
  ECHORC herbicidal rating: 9.0
[3]; 0.0320 kg/ha
  MOOVA herbicidal rating: 9.0
[3]; 0.0620 kg/ha
  MOOVA herbicidal rating: 9.0
[3]; 0.1250 kg/ha
  MOOVA herbicidal rating: 9.0
[3]; 0.2500 kg/ha
  MOOVA herbicidal rating: 9.0
Cyperus iria; 0.0320 kg/ha
  CYPIR herbicidal rating: 7.5
Cyperus iria; 0.0620 kg/ha
  CYPIR herbicidal rating: 9.0
Cyperus iria; 0.1250 kg/ha
  CYPIR herbicidal rating: 9.0
Cyperus iria; 0.2500 kg/ha
  CYPIR herbicidal rating: 9.0
[4]; 0.0320 kg/ha
  ORYSAT herbicidal rating (rice tolerance): 5.0
[4]; 0.0620 kg/ha
  ORYSAT herbicidal rating (rice tolerance): 6.5
[4]; 0.1250 kg/ha
  ORYSAT herbicidal rating (rice tolerance): 8.0
[4]; 0.2500 kg/ha
  ORYSAT herbicidal rating (rice tolerance): 7.5

## Cn1c(C(F)(F)F)cc(=O)n(-c2ccc3snc(C(=O)Nc4nc(C(F)(F)F)c(Cl)s4)c3c2)c1=O [Example 439, 1,2-Benzisothiazole-3-carboxamide, N-[5-chloro-4-(trifluoromethyl)thiazol-2-yl]-5-[3,6-dihydro-3-methyl-2,6-dioxo-4-(trifluoromethyl)-1(2H)-pyrimidinyl]-]
[1]; 0.0320 kg/ha
  CYPSE: 0.0
[1]; 0.0620 kg/ha
  CYPSE: 0.0
[1]; 0.1250 kg/ha
  CYPSE: 0.0
[1]; 0.2500 kg/ha
  CYPSE: 0.0
Sagittaria pygmaea, L.; 0.0320 kg/ha
  SAGPY: 0.0
Sagittaria pygmaea, L.; 0.0620 kg/ha
  SAGPY: 0.0
Sagittaria pygmaea, L.; 0.1250 kg/ha
  SAGPY: 0.0
Sagittaria pygmaea, L.; 0.2500 kg/ha
  SAGPY: 3.0
[2]; 0.0320 kg/ha
  ECHORC: 2.0
[2]; 0.0620 kg/ha
  ECHORC: 3.0
[2]; 0.1250 kg/ha
  ECHORC: 6.0
[2]; 0.2500 kg/ha
  ECHORC: 6.0
[3]; 0.0320 kg/ha
  MOOVA: 5.0
[3]; 0.0620 kg/ha
  MOOVA: 6.0
[3]; 0.1250 kg/ha
  MOOVA: 7.0
[3]; 0.2500 kg/ha
  MOOVA: 7.0
Cyperus iria; 0.0320 kg/ha
  CYPIR: 1.0
Cyperus iria; 0.0620 kg/ha
  CYPIR: 3.0
Cyperus iria; 0.1250 kg/ha
  CYPIR: 4.0
Cyperus iria; 0.2500 kg/ha
  CYPIR: 5.0
[4]; 0.0320 kg/ha
  ORYSAT: 0.0
[4]; 0.0620 kg/ha
  ORYSAT: 0.0
[4]; 0.1250 kg/ha
  ORYSAT: 0.0
[4]; 0.2500 kg/ha
  ORYSAT: 0.0

## Cc1noc2cc(F)c(-n3c(=O)cc(C(F)(F)F)n(C)c3=O)cc12 [Example 23, 3-(6-Fluoro-3-methyl-1,2-benzisoxazol-5-yl)-1-methyl-6-(trifluoromethyl)-2,4(1H,3H)-pyrimidinedione]
[1]; 0.0313 kg/ha
  herbicidal effect rating, CYPSE: 4.0
[1]; 0.0625 kg/ha
  herbicidal effect rating, CYPSE: 7.0
[1]; 0.1250 kg/ha
  herbicidal effect rating, CYPSE: 8.0
[1]; 0.2500 kg/ha
  herbicidal effect rating, CYPSE: 9.0
Sagittaria pygmaea, L.; 0.0313 kg/ha
  herbicidal effect rating, SAGPY: 4.0
Sagittaria pygmaea, L.; 0.0625 kg/ha
  herbicidal effect rating, SAGPY: 6.0
Sagittaria pygmaea, L.; 0.1250 kg/ha
  herbicidal effect rating, SAGPY: 9.0
Sagittaria pygmaea, L.; 0.2500 kg/ha
  herbicidal effect rating, SAGPY: 9.0
[2]; 0.0313 kg/ha
  herbicidal effect rating, ECHORC: 4.5
[2]; 0.0625 kg/ha
  herbicidal effect rating, ECHORC: 7.0
[2]; 0.1250 kg/ha
  herbicidal effect rating, ECHORC: 8.5
[2]; 0.2500 kg/ha
  herbicidal effect rating, ECHORC: 9.0
[3]; 0.0313 kg/ha
  herbicidal effect rating, MOOVA: 9.0
[3]; 0.0625 kg/ha
  herbicidal effect rating, MOOVA: 9.0
[3]; 0.1250 kg/ha
  herbicidal effect rating, MOOVA: 9.0
[3]; 0.2500 kg/ha
  herbicidal effect rating, MOOVA: 9.0
Cyperus iria; 0.0313 kg/ha
  herbicidal effect rating, CYPIR: 7.0
Cyperus iria; 0.0625 kg/ha
  herbicidal effect rating, CYPIR: 9.0
Cyperus iria; 0.1250 kg/ha
  herbicidal effect rating, CYPIR: 9.0
Cyperus iria; 0.2500 kg/ha
  herbicidal effect rating, CYPIR: 9.0
[4]; 0.0313 kg/ha
  herbicidal effect rating, ORYSAT (rice tolerance): 5.5
[4]; 0.0625 kg/ha
  herbicidal effect rating, ORYSAT (rice tolerance): 6.5
[4]; 0.1250 kg/ha
  herbicidal effect rating, ORYSAT (rice tolerance): 8.0
[4]; 0.2500 kg/ha
  herbicidal effect rating, ORYSAT (rice tolerance): 8.5
